According to patent publication US20240376056A1, “PHENYL ACETAMIDE BASED IL-17A MODULATORS AND USES THEREOF” (DiCE Alpha, Inc., priority 2021, published 2024):
pIC50: −log10 of the molar value. Structures can show the parent of a compound that is named as a salt.

Molecular target: T1, IL-17A/A (Homo sapiens, UniProt Q16552)
T1 construct: purchased Genscript Z03228
T1 sequence (Q16552 24-155): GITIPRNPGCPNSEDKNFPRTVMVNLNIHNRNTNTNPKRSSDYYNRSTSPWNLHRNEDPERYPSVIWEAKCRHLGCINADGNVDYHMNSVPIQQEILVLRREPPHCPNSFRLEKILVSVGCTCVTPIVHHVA
Experiment: HEK-Blue IL-17A/A inhibition assay (SEAP reporter)
Assay type: cell-based
Details: HEK-Blue cells (HEK 293 expressing IL-17RA, IL-17RC, Act1); IL-17A/A stimulation; 20 hours; SEAP read at A630; 4-parameter fit
Outline: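 IC50 from a 4-parameter fit of SEAP signal (Quanti-Blue, A630) after 20 h co-incubation of compound and IL-17A/A. Reporter line: HEK 293 expressing IL-17RA, IL-17RC and Act1 with NFκB-SEAP; compound top final 10, 1 or 0.3 uM, DMSO 0.1% final.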

## CC(C)n1nccc1C(=O)N[C@H](C(=O)Nc1ccc([C@H](C)C(=O)N(CCN)CC(F)(F)F)cc1F)C(C1CC1)C1CC1 [Compound 139, N-((S)-1-((4-((S)-1-((2-aminoethyl)(2,2,2-trifluoroethyl)amino)-1-oxopropan-2-yl)-2-fluorophenyl)amino)-3,3-dicyclopropyl-1-oxopropan-2-yl)-1-isopropyl-1H-pyrazole-5-carboxamide]
  pIC50: 6.00 to 7.00

## CC(C)n1nccc1C(=O)N[C@H](C(=O)Nc1ccc([C@H](C)C(=O)N(CC(F)(F)F)C2CCOC2)cc1F)C(C1CC1)C1CC1 (some centres unmarked) [Compound 153]
  pIC50: 6.00 to 7.00

## CC(C)n1nccc1C(=O)N[C@H](C(=O)Nc1ccc([C@H](C)C(=O)NC(CNC(=O)OC(C)(C)C)C(F)(F)F)cc1F)C(C1CC1)C1CC1 (some centres unmarked) [Compound 154]
  pIC50: 6.00 to 7.00

## CC(C)n1nccc1C(=O)N[C@H](C(=O)Nc1ccc([C@H](C)C(=O)N[C@H](CO)C2CCC2)cc1F)C(C1CC1)C1CC1 [Compound 155]
  pIC50: < 6.00

## CC(C)n1nccc1C(=O)N[C@H](C(=O)Nc1ccc([C@H](C)C(=O)N[C@@H](CO)C2CCC2)cc1F)C(C1CC1)C1CC1 [Compound 156]
  pIC50: 6.00 to 7.00

## CC(C)n1nccc1C(=O)N[C@H](C(=O)Nc1ccc([C@H](C)C(=O)NC(CN)C(F)(F)F)cc1F)C(C1CC1)C1CC1 (stereo partly drawn) [Compound 157, N-((2S)-1-((4-((2S)-1-((3-amino-1,1,1-trifluoropropan-2-yl)amino)-1-oxopropan-2-yl)-2-fluorophenyl)amino)-3.3-dicyclopropyl-1-oxopropan-2-yl)-1-isopropyl-1H-pyrazole-5-carboxamide hydrochloride]
  pIC50: 6.00 to 7.00

## CC(C(=O)NCC(F)(F)F)c1cc(F)c(NC(=O)[C@@H](NC(=O)c2ccnn2C(C)C)C(C2CC2)C2CC2)cc1N1CCCC1 (stereo partly drawn) [Compound 160, N-((2S)-1,1-dicyclopropyl-3-((2-fluoro-4-(1-oxo-1-((2,2,2-trifluoroethyl)amino)propan-2-yl)-5-(pyrrolidin-1-yl)phenyl)ammno)-3-oxopropan-2-yl)-1-isopropyl-1H-pyrazole-5-carboxamide]
  pIC50: > 7.00

## CC(C)n1nccc1C(=O)N[C@H](C(=O)Nc1cc(CN(C)C)c([C@H](C)C(=O)NCC(F)(F)F)cc1F)C(C1CC1)C1CC1 [Compound 165, N-((S)-1,1-dicyclopropyl-3-((5-((dimethylamino)methyl)-2-fluoro-4-((S)-1-oxo-1-((2,2,2-trifluoroethyl)amino)propan-2-yl)phenyl)amino)-3-oxopropan-2-yl)-1-isopropyl-1H-pyrazole-5-carboxamide]
  pIC50: 6.00 to 7.00

## CC(C)n1nccc1C(=O)N[C@H](C(=O)Nc1cc(CCN(C)C)c([C@H](C)C(=O)NCC(F)(F)F)cc1F)C(C1CC1)C1CC1 [Compound 166, N-((S)-1,1-dicyclopropyl-3-((5-(2-(dimethylamino)ethyl)-2-fluoro-4-((S)-1-oxo-1-((2,2,2-trifluoroethyl)amino)propan-2-yl)phenyl)amino)-3-oxopropan-2-yl)-1-isopropyl-1H-pyrazole-5-carboxamide]
  pIC50: 6.00 to 7.00

## CC(C)n1nccc1C(=O)N[C@H](C(=O)Nc1ccc(C(CO)C(=O)NCC(F)(F)F)cc1F)C(C1CC1)C1CC1 (stereo partly drawn) [Compound 168, N-((2S)-1.1-dicyclopropyl-3-((2-fluoro-4-(3-hydroay-1-oxo-11-((2,2,2-trifluoroethyl)amino)propan-2-yl)phenyl)amino)-3-oxopropan-2-yl)-1-isopropyl-1H-pyrazole-5-carboxamide]
  pIC50: 6.00 to 7.00

## CC(C(=O)NCC(F)(F)F)c1cc(F)c(NC(=O)[C@@H](NC(=O)c2ccnn2C(C)C)C(C2CC2)C2CC2)cc1C(F)(F)F (some centres unmarked) [Compound 169]
  pIC50: > 7.00

## CCn1nccc1C(=O)N[C@H](C(=O)Nc1cc(OC)c(C(C)C(=O)N(C)CC(F)(F)F)cc1F)C(C1CC1)C1CC1 (some centres unmarked) [Compound 174]
  pIC50: > 7.00

## CCC(c1ccc(F)cc1)[C@H](NC(=O)c1ccnn1C(C)C)C(=O)Nc1cc(OC)c(C(C)C(=O)NCC(F)(F)F)cc1F (some centres unmarked) [Compound 175]
  pIC50: 6.00 to 7.00

## COc1cc(NC(=O)[C@@H](NC(=O)c2ccnn2C(C)C)C(C2CC2)C2CC2)c(F)cc1C(C)C(=O)N(C)CC(F)(F)F (some centres unmarked) [Compound 176]
  pIC50: > 7.00

## CC[C@@H](c1ccc(F)cc1)[C@H](NC(=O)c1ccnn1C(C)C)C(=O)Nc1cc(OC)c(C(C)C(=O)NCC(F)(F)F)cc1F (some centres unmarked) [Compound 177]
  pIC50: 6.00 to 7.00

## Cc1cc(NC(=O)[C@@H](NC(=O)c2ccnn2C(C)C)C(C2CC2)C2CC2)c(F)cc1C(C)C(=O)NC(C(N)=O)C(F)(F)F (some centres unmarked) [Compound 178]
  pIC50: 6.00 to 7.00

## COc1cc(NC(=O)[C@@H](NC(=O)c2ccnn2C)C(C2CC2)C2CC2)c(F)cc1C(C)C(=O)N(C)CC(F)(F)F (some centres unmarked) [Compound 179]
  pIC50: > 7.00

## Cc1cc(NC(=O)C(NC(=O)c2ccnn2C(C)C)C(C2CC2)C2CC2)c(F)cc1C(C)C(=O)N1CC(C)OCC1C(F)(F)F (centres unmarked) [Compound 184]
  pIC50: > 7.00

## CC(C(=O)NCC(F)(F)F)c1cc(F)c(NC(=O)[C@@H](NC(=O)c2ccnn2C(C)C)C(C2CC2)C2CC2)cc1N1CCCC1=O (some centres unmarked) [Compound 187]
  pIC50: 6.00 to 7.00

## CC(C(=O)NCC(F)(F)F)c1cc(F)c(NC(=O)[C@@H](NC(=O)c2ccnn2C(C)C)C(C2CC2)C2CC2)cc1N1CCOCC1 (some centres unmarked) [Compound 188]
  pIC50: > 7.00

## CC(=O)NC(C(=O)NCC(F)(F)F)c1ccc(NC(=O)[C@@H](NC(=O)c2ccnn2C(C)C)C(C2CC2)C2CC2)c(F)c1 (some centres unmarked) [Compound 190]
  pIC50: < 6.00

## CCC(C(=O)N(C)CC(F)(F)F)c1ccc(NC(=O)[C@@H](NC(=O)c2ccnn2C(C)C)C(C2CC2)C2CC2)c(F)c1 (some centres unmarked) [Compound 192]
  pIC50: > 7.00

## CC(C)n1nccc1C(=O)N[C@H](C(=O)Nc1ccc(C(CO)C(=O)NCC(F)(F)F)cc1F)C(C1CC1)C1CC1 (some centres unmarked) [Compound 193]
  pIC50: < 6.00

## CCOc1cc(NC(=O)[C@@H](NC(=O)c2ccnn2C(C)C)C(C2CC2)C2CC2)c(F)cc1C(C)C(=O)NCC(F)(F)F (some centres unmarked) [Compound 194]
  pIC50: 6.00 to 7.00

## CCOc1cc(NC(=O)[C@@H](NC(=O)c2ccnn2C(C)C)C(C2CC2)C2CC2)c(F)cc1C(C)C(=O)N(C)CC(F)(F)F (some centres unmarked) [Compound 195]
  pIC50: > 7.00

## CNc1cc(NC(=O)[C@@H](NC(=O)c2ccnn2C(C)C)C(C2CC2)C2CC2)c(F)cc1C(C)C(=O)NCC(F)(F)F (some centres unmarked) [Compound 196]
  pIC50: < 6.00

## Cc1cc(NC(=O)[C@@H](NC(=O)c2nonc2C)C2CCC(F)(F)CC2)c(F)cc1C(C)C(=O)NCC(F)(F)F (some centres unmarked) [Compound 197]
  pIC50: < 6.00

## Cc1cc(NC(=O)[C@@H](NC(=O)c2nonc2C)C2CCC(F)(F)CC2)c(F)cc1C(C)C(=O)N(C)CC(F)(F)F (some centres unmarked) [Compound 198]
  pIC50: 6.00 to 7.00

## CCn1nccc1C(=O)N[C@H](C(=O)Nc1cc(C)c(C(C)C(=O)NCC(F)(F)F)cc1F)[C@H]1CC[C@H](C)CC1 (some centres unmarked) [Compound 201]
  pIC50: < 6.00

## CCn1nccc1C(=O)N[C@H](C(=O)Nc1cc(C)c(C(C)C(=O)N(C)CC(F)(F)F)cc1F)[C@H]1CC[C@H](C)CC1 (some centres unmarked) [Compound 202]
  pIC50: > 7.00

## CC[C@@H](c1ccc(F)cc1)[C@H](NC(=O)c1ccnn1CC)C(=O)Nc1cc(C)c(C(C)C(=O)N(C)CC(F)(F)F)cc1F (some centres unmarked) [Compound 203]
  pIC50: > 7.00

## CC(C(=O)N1CC(C#N)CCC1C(F)(F)F)c1ccc(NC(=O)[C@@H](NC(=O)c2ccnn2C(C)C)C(C2CC2)C2CC2)c(F)c1 (some centres unmarked) [Compound 204]
  pIC50: 6.00 to 7.00

## CCc1nonc1C(=O)N[C@H](C(=O)Nc1cc(C)c(C(C)C(=O)N(C)CC(F)(F)F)cc1F)C(C1CC1)C1CC1 (some centres unmarked) [Compound 205]
  pIC50: > 7.00

## CCc1nonc1C(=O)N[C@H](C(=O)Nc1cc(C)c(C(C)C(=O)NCC(F)(F)F)cc1F)C(C1CC1)C1CC1 (some centres unmarked) [Compound 206]
  pIC50: 6.00 to 7.00

## Cc1cc(NC(=O)[C@@H](NC(=O)c2ccnn2C(C)C)C2CCC(F)(F)CC2)c(F)cc1C(C)C(=O)N(C)CC(F)(F)F (some centres unmarked) [Compound 207]
  pIC50: > 7.00

## Cc1cc(NC(=O)[C@@H](NC(=O)c2ccnn2C(C)C)C(C2CC2)C2CC2)c(F)cc1C(C)C(=O)N(C)CC(F)(F)F (some centres unmarked) [Compound 208]
  pIC50: > 7.00

## Cc1cc(NC(=O)[C@@H](NC(=O)c2ccnn2C(C)C)C(C2CC2)C2CC2)c(F)cc1C(C)C(=O)NC(C1CCOC1)C(F)(F)F (some centres unmarked) [Compound 209]
  pIC50: > 7.00

## Cc1cc(NC(=O)[C@@H](NC(=O)c2nonc2C)C(C2CC2)C2CC2)c(F)cc1C(C)C(=O)NCC(F)(F)F (some centres unmarked) [Compound 210]
  pIC50: 6.00 to 7.00

## Cc1cc(NC(=O)[C@@H](NC(=O)c2nonc2C)C(C2CC2)C2CC2)c(F)cc1C(C)C(=O)N(C)CC(F)(F)F (some centres unmarked) [Compound 211]
  pIC50: > 7.00

## CC(C(=O)NCC(F)(F)F)c1cc(F)c(NC(=O)[C@@H](NC(=O)c2ccnn2C(C)C)C(C2CC2)C2CC2)cc1N(C)C (some centres unmarked) [Compound 214]
  pIC50: < 6.00

## Cc1cc(NC(=O)[C@@H](NC(=O)c2ccnn2C)C2CCC(F)(F)CC2)c(F)cc1C(C)C(=O)NCC(F)(F)F (some centres unmarked) [Compound 215]
  pIC50: < 6.00

## Cc1cc(NC(=O)[C@@H](NC(=O)c2ccnn2C)C2CCC(F)(F)CC2)c(F)cc1C(C)C(=O)N(C)CC(F)(F)F (some centres unmarked) [Compound 216]
  pIC50: 6.00 to 7.00

## CCn1nccc1C(=O)N[C@H](C(=O)Nc1cc(C)c(C(C)C(=O)NCC(F)(F)F)cc1F)C1CCC(F)(F)CC1 (some centres unmarked) [Compound 217]
  pIC50: < 6.00

## CCn1nccc1C(=O)N[C@H](C(=O)Nc1cc(C)c(C(C)C(=O)N(C)CC(F)(F)F)cc1F)C1CCC(F)(F)CC1 (some centres unmarked) [Compound 218]
  pIC50: > 7.00

## CCn1nccc1C(=O)N[C@H](C(=O)Nc1ccc(C(C)C(=O)N2CCC(C(F)(F)F)C2)cc1F)C(C1CC1)C1CC1 (some centres unmarked) [Compound 221]
  pIC50: 6.00 to 7.00

## Cc1cc(NC(=O)[C@@H](NC(=O)c2ccnn2C)C(C2CC2)C2CC2)c(F)cc1C(C)C(=O)NCC(F)(F)F (some centres unmarked) [Compound 222]
  pIC50: < 6.00

## Cc1cc(NC(=O)[C@@H](NC(=O)c2ccnn2C)C(C2CC2)C2CC2)c(F)cc1C(C)C(=O)N(C)CC(F)(F)F (some centres unmarked) [Compound 223]
  pIC50: > 7.00
